Data from the supplement of paper PMC11451515.

System: SEM cells
Assay: cell viability relative to DMSO control; higher = less cytotoxic
Settings: 48 h
How it was run: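 NOMO1, SEM and P12-Ichikawa leukemia cells spent at least four passages adapting to each medium before use. They were seeded at 500 cells/well (NOMO1, SEM) or 1000 cells/well (P12-Ichikawa) in 5 μl in 1536-well plates and pin-dosed with library compounds in DMSO at 11 threefold steps from 47 μM down to 0.79 nM. After 48 h at 37°C, CellTiter-Glo One luminescence was read. Viability is reported as a percentage of the DMSO wells on each plate, with cell-free wells as background.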

[1] = HPLM + 10% dialyzed FBS, 0.000781 µM
[2] = HPLM + 10% dialyzed FBS, 0.00234 µM
[3] = HPLM + 10% dialyzed FBS, 0.00702 µM
[4] = HPLM + 10% dialyzed FBS, 0.0211 µM
[5] = HPLM + 10% dialyzed FBS, 0.0632 µM
[6] = HPLM + 10% dialyzed FBS, 0.19 µM
[7] = HPLM + 10% dialyzed FBS, 0.569 µM
[8] = HPLM + 10% dialyzed FBS, 1.71 µM
[9] = HPLM + 10% dialyzed FBS, 5.12 µM
[10] = HPLM + 10% dialyzed FBS, 15.4 µM
[11] = HPLM + 10% dialyzed FBS, 46.1 µM
[12] = RPMI 5 mM glucose + 10% FBS, 0.000781 µM
[13] = RPMI 5 mM glucose + 10% FBS, 0.00234 µM
[14] = RPMI 5 mM glucose + 10% FBS, 0.00702 µM
[15] = RPMI 5 mM glucose + 10% FBS, 0.0211 µM
[16] = RPMI 5 mM glucose + 10% FBS, 0.0632 µM
[17] = RPMI 5 mM glucose + 10% FBS, 0.19 µM
[18] = RPMI 5 mM glucose + 10% FBS, 0.569 µM
[19] = RPMI 5 mM glucose + 10% FBS, 1.71 µM
[20] = RPMI 5 mM glucose + 10% FBS, 5.12 µM
[21] = RPMI 5 mM glucose + 10% FBS, 15.4 µM
[22] = RPMI 5 mM glucose + 10% FBS, 46.1 µM
[23] = RPMI 5 mM glucose + 10% dialyzed FBS, 0.000781 µM
[24] = RPMI 5 mM glucose + 10% dialyzed FBS, 0.00234 µM
[25] = RPMI 5 mM glucose + 10% dialyzed FBS, 0.00702 µM
[26] = RPMI 5 mM glucose + 10% dialyzed FBS, 0.0211 µM
[27] = RPMI 5 mM glucose + 10% dialyzed FBS, 0.0632 µM
[28] = RPMI 5 mM glucose + 10% dialyzed FBS, 0.19 µM
[29] = RPMI 5 mM glucose + 10% dialyzed FBS, 0.569 µM
[30] = RPMI 5 mM glucose + 10% dialyzed FBS, 1.71 µM
[31] = RPMI 5 mM glucose + 10% dialyzed FBS, 5.12 µM
[32] = RPMI 5 mM glucose + 10% dialyzed FBS, 15.4 µM
[33] = RPMI 5 mM glucose + 10% dialyzed FBS, 46.1 µM

CN[S+](=O)([O-])Cc1ccc2[nH]cc(CCN(C)C)c2c1
cell viability [1]: 95.3% | cell viability [2]: 104% | cell viability [3]: 102% | cell viability [4]: 111% | cell viability [5]: 112% | cell viability [6]: 118% | cell viability [7]: 113% | cell viability [8]: 119% | cell viability [9]: 118% | cell viability [10]: 129% | cell viability [11]: 118% | cell viability [12]: 89.2% | cell viability [13]: 114% | cell viability [14]: 104% | cell viability [15]: 114% | cell viability [16]: 107% | cell viability [17]: 119% | cell viability [18]: 121% | cell viability [19]: 115% | cell viability [20]: 126% | cell viability [21]: 128% | cell viability [22]: 128% | cell viability [23]: 93.4% | cell viability [24]: 86% | cell viability [25]: 87% | cell viability [26]: 91.8% | cell viability [27]: 94.1% | cell viability [28]: 102% | cell viability [29]: 95.7% | cell viability [30]: 106% | cell viability [31]: 94.8% | cell viability [32]: 111% | cell viability [33]: 92.9%

Oc1ccc2c3c1O[C@H]1c4[nH]c5c(c4C[C@@]4(O)[C@@H](C2)N(CC2CC2)CC[C@]314)C[C@@]1(O)[C@H]2Cc3ccc(O)c4c3[C@@]1(CCN2CC1CC1)[C@H]5O4
cell viability [1]: 70.3% | cell viability [2]: 88.3% | cell viability [3]: 101% | cell viability [4]: 92.6% | cell viability [5]: 108% | cell viability [6]: 99.4% | cell viability [7]: 98.4% | cell viability [8]: 107% | cell viability [9]: 113% | cell viability [10]: 113% | cell viability [11]: 119% | cell viability [12]: 86.9% | cell viability [13]: 80.2% | cell viability [14]: 102% | cell viability [15]: 85.7% | cell viability [16]: 123% | cell viability [17]: 119% | cell viability [18]: 123% | cell viability [19]: 128% | cell viability [20]: 131% | cell viability [21]: 119% | cell viability [22]: 123% | cell viability [23]: 89.5% | cell viability [24]: 92.6% | cell viability [25]: 104% | cell viability [26]: 80.3% | cell viability [27]: 107% | cell viability [28]: 106% | cell viability [29]: 111% | cell viability [30]: 107% | cell viability [31]: 98.4% | cell viability [32]: 99.6% | cell viability [33]: 113%

CC(=O)O.Cc1c(-c2ccc(O)cc2)n(Cc2ccc(OCCN3CCCCCC3)cc2)c2ccc(O)cc12
cell viability [1]: 88.5% | cell viability [2]: 50% | cell viability [3]: 91.9% | cell viability [4]: 92% | cell viability [5]: 99.7% | cell viability [6]: 112% | cell viability [7]: 102% | cell viability [8]: 101% | cell viability [9]: 93.5% | cell viability [10]: 117% | cell viability [11]: 99.5% | cell viability [12]: 92% | cell viability [13]: 46.9% | cell viability [14]: 89% | cell viability [15]: 98.7% | cell viability [16]: 86.6% | cell viability [17]: 95.4% | cell viability [18]: 89.2% | cell viability [19]: 95.5% | cell viability [20]: 86.9% | cell viability [21]: 92.5% | cell viability [22]: 94.4% | cell viability [23]: 90.2% | cell viability [24]: 41.7% | cell viability [25]: 93.8% | cell viability [26]: 99.6% | cell viability [27]: 81.2% | cell viability [28]: 102% | cell viability [29]: 101% | cell viability [30]: 94.1% | cell viability [31]: 110% | cell viability [32]: 119% | cell viability [33]: 101%

CC(=O)O[C@H]1C(=O)[C@]2(C)[C@@H](O)C[C@H]3OC[C@@]3(OC(C)=O)C2[C@H](OC(=O)C4=CC=CC=C4)[C@]5(O)C[C@H](OC(=O)[C@H](O)[C@@H](NC(=O)C6=CC=CC=C6)C7=CC=CC=C7)\C(=C1/C5(C)C)C (stereo partly specified)
cell viability [1]: 81.5% | cell viability [2]: 50% | cell viability [3]: 31.7% | cell viability [4]: 27.9% | cell viability [5]: 27.8% | cell viability [6]: 26.4% | cell viability [7]: 26.8% | cell viability [8]: 24.1% | cell viability [9]: 26.8% | cell viability [10]: 22.6% | cell viability [11]: 25.9% | cell viability [12]: 59.1% | cell viability [13]: 30.5% | cell viability [14]: 22.3% | cell viability [15]: 17% | cell viability [16]: 16.2% | cell viability [17]: 14.2% | cell viability [18]: 16.3% | cell viability [19]: 15.7% | cell viability [20]: 15.6% | cell viability [21]: 15.6% | cell viability [22]: 13.5% | cell viability [23]: 81.3% | cell viability [24]: 48.1% | cell viability [25]: 35.2% | cell viability [26]: 26.3% | cell viability [27]: 24.2% | cell viability [28]: 23.3% | cell viability [29]: 22.8% | cell viability [30]: 22.3% | cell viability [31]: 22.4% | cell viability [32]: 23.9% | cell viability [33]: 22.3%

C/C=C1\NC(=O)[C@H]2CSSCC/C=C\[C@H](CC(=O)N[C@H](C(C)C)C(=O)N2)OC(=O)[C@H](C(C)C)NC1=O
cell viability [1]: 81.1% | cell viability [2]: 89% | cell viability [3]: 95.1% | cell viability [4]: 101% | cell viability [5]: 5.64% | cell viability [6]: 4.52% | cell viability [7]: 4.32% | cell viability [8]: 4.63% | cell viability [9]: 4.25% | cell viability [10]: 3.1% | cell viability [11]: 4.21% | cell viability [12]: 100% | cell viability [13]: 103% | cell viability [14]: 105% | cell viability [15]: 81.5% | cell viability [16]: 4.85% | cell viability [17]: 4.94% | cell viability [18]: 4.25% | cell viability [19]: 4.39% | cell viability [20]: 4.14% | cell viability [21]: 3.14% | cell viability [22]: 4.36% | cell viability [23]: 73% | cell viability [24]: 106% | cell viability [25]: 85.9% | cell viability [26]: 90.4% | cell viability [27]: 5.18% | cell viability [28]: 4.76% | cell viability [29]: 4.87% | cell viability [30]: 4.53% | cell viability [31]: 4.12% | cell viability [32]: 2.58% | cell viability [33]: 4.19%

OC(=O)C1=CC=C(NC2=NC3=C(C\N=C(/C4=CC(=CC=C34)Cl)C5=C(F)C=CC=C5F)C=N2)C=C1
cell viability [1]: 88.5% | cell viability [2]: 98.5% | cell viability [3]: 87.5% | cell viability [4]: 97.9% | cell viability [5]: 101% | cell viability [6]: 96% | cell viability [7]: 114% | cell viability [8]: 65.8% | cell viability [9]: 59.7% | cell viability [10]: 36.9% | cell viability [11]: 40.3% | cell viability [12]: 96% | cell viability [13]: 93% | cell viability [14]: 113% | cell viability [15]: 99.9% | cell viability [16]: 109% | cell viability [17]: 91% | cell viability [18]: 109% | cell viability [19]: 60.2% | cell viability [20]: 37.3% | cell viability [21]: 28.4% | cell viability [22]: 23.2% | cell viability [23]: 88.6% | cell viability [24]: 98.5% | cell viability [25]: 86% | cell viability [26]: 105% | cell viability [27]: 90.8% | cell viability [28]: 95.7% | cell viability [29]: 107% | cell viability [30]: 58.6% | cell viability [31]: 39% | cell viability [32]: 28.4% | cell viability [33]: 32.2%

Cc1cc(OCCCc2c(C(=O)O)n(Cc3cccnc3)c3c(-c4c(COc5ccc(N6CCN([S+](C)(=O)[O-])CC6)cc5)nn(C)c4C)cccc23)cc(C)c1Cl
cell viability [1]: 102% | cell viability [2]: 94.1% | cell viability [3]: 105% | cell viability [4]: 101% | cell viability [5]: 89.4% | cell viability [6]: 91.8% | cell viability [7]: 100% | cell viability [8]: 93.3% | cell viability [9]: 84.9% | cell viability [10]: 81.5% | cell viability [11]: 62.2% | cell viability [12]: 112% | cell viability [13]: 116% | cell viability [14]: 133% | cell viability [15]: 106% | cell viability [16]: 105% | cell viability [17]: 113% | cell viability [18]: 112% | cell viability [19]: 96.9% | cell viability [20]: 111% | cell viability [21]: 91.2% | cell viability [22]: 67.4% | cell viability [23]: 86.7% | cell viability [24]: 94.5% | cell viability [25]: 96.1% | cell viability [26]: 104% | cell viability [27]: 102% | cell viability [28]: 110% | cell viability [29]: 90.7% | cell viability [30]: 91.7% | cell viability [31]: 89.8% | cell viability [32]: 76.4% | cell viability [33]: 53.1%
